Experimental data taken from patent publication US11725000B2, “Apoptosis inhibitors” (National Institute of Biological Sciences, Beijing, priority 2017, dated 2023).
Where a SMILES comes first, the peptide text is derived from it. The star is where a group is joined. Cbz = O=C(OCc1ccccc1)*; CH2F = FC*

Legend:
Assay type in all cases: cell-based
U2OS_Bim cells [1] = assay: Irreversibility binding assay (cellular wash/no wash assay)
From the text: It has been reported that sulfone can serve as a good leaving group in SN2 substitution reactions when linked to electron withdrawing groups. Active compounds in our SAR study all contained a —CF3 substituted pyrimidine ring linked to the sulfone group. Replacement of CF3 at the R2 position with groups with less powerful electron-withdrawing properties totally abolished the apoptosis inhibition activity. […] To test the reactivity of representative TC09 compounds, we performed model reactions using different nucleophilic reagent (cysteine, lysine, and glutathione) with compounds 1, 6, and 27. […] To further explore the binding mode of the active compounds in a cellular context, we next performed a cellular wash/no wash assay for determining the reversibility of compound-target interactions. Following compound incubation, one subset of cells was washed several times to eliminate the free test compounds, and the other subset was not washed. Apoptosis was induced and the viability of cells was then measured and EC50 under wash conditions was compared with no wash conditions.[9]
U2OS_Bim cells were plated at a density of 3000 cells per well in 96-well plates. 24 hrs later, duplicate sets of cells were treated with experimental compounds for 3 hrs. One subset of these cells were treated with 0.1 μg/mL DOX to trigger apoptosis. The remaining subset of cells was washed free of the experimental compound using warmed medium, 3 times, before being treated with 0.1 μg/mL DOX. 24 hours after DOX addition, cell viability was determined by measuring the ATP levels using a CellTiter-Glo kit. Cell survival rate was calculated. zVAD (20 μM) was used as a positive control.

U2OS_Bim cells [2] = assay: Long-term cell survival under constant apoptotic insult (DOX)
Protocol: We therefore tested the long-term impact of TC09 compounds on cells experiencing constant apoptotic insult. […] Remarkably, in the presence of tested TC09 compounds, the cells continued to proliferate, similar to cells grown under normal conditions.
The U2OS_Bim cells were all killed when DOX was added, even in the presence of z-VAD-FMK.

U2OS_Bim cells [3] = assay: TMRM staining (mitochondrial membrane potential); conditions: DOX induction of Bim
Protocol: U2OS_Bim cells were plated at a density of 3000 cells per well in 96-well optical plates. 24 hrs later, cells were treated with experimental compounds for one hour. The cells were then treated with 0.1 μg/mL DOX to trigger apoptosis. 4 hrs later, 50 nM TMRM was added to each well and incubated for 30 min. Cells were washed 3 times with warmed PBS buffer and examined with a Zeiss LSM 510 confocal microscope.

U2OS_Bim cells [4] = assay: Apoptosis inhibition assay (Bim-induced apoptosis, cell viability by ATP level); conditions: U2OS_Bim cells
Summary of the method: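 Apoptosis was triggered by doxycycline (0.1 μg/mL) induction of Bim, one hour after compound addition to U2OS_Bim cells. Survival was measured after 24 h from cellular ATP (CellTiter-Glo), relative to DMSO, with zVAD at 20 μM as rescue control. Data are duplicate means, some estimated from preliminary results.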

U2OS_Bim cells [5] = assay: Immunostaining of cytochrome c (mitochondrial cytochrome c release); conditions: immunofluorescence after induced Bim overexpression
Protocol: U2OS_Bim cells were plated in Lab-Tek eight-chambered slides (Thermo Scientific). 24 hrs later, cells were treated with experimental compounds for one hour. Cell were washed by PBS for 10 min and fixed with 2% PFA for 30 min at room temperature. Following three additional washes in PBS, cells were incubated in PBS containing 0.1% Triton X-100 for 10 min. Cytochrome c antibody (diluted in 5% BSA in PBST) was incubated with the cells at 4° C. overnight. Cells were then washed three times with PBST and incubated with secondary antibody at room temperature for 1 h. Following three additional washes in PBS, the slides were covered and sealed and then examined with a Zeiss LSM 510 confocal microscope.

[6] = no wash, 3 hrs compound incubation before DOX, read-out: EC50 (no wash)

## COC(=O)C[C@H](NC(=O)[C@H](C)NC(=O)[C@@H](NC(=O)OCc1ccccc1)C(C)C)C(=O)CF [zVAD] (Cbz-Val-Ala-Asp(OMe)-CH2F)
U2OS_Bim cells [1]; [6]
  EC50: 69.2 µM
U2OS_Bim cells [2]; 1 week
  cell colonies after 1 week culture with DOX (crystal violet): all killed
U2OS_Bim cells [2]; constant apoptotic insult, up to third day
  cell survival/proliferation over days after addition of DOX: clearly delayed death, most of the cells had died by the third day
U2OS_Bim cells [3]
  mitochondria membrane potential and TMRM enrichment after apoptosis induction: cannot be achieved

## Cc1ccc(O)c(NC(=O)CCCS(=O)(=O)c2nc(-c3cccs3)cc(C(F)(F)F)n2)c1 [Hit]
U2OS_Bim cells [4]; DOX-induced Bim overexpression, viability 24 h after DOX, read-out: EC50
  EC50: 4.01 µM
U2OS_Bim cells [4]; means of duplicates, numbering of Tables 4a/4b, read-out: EC50
  EC50: 1 to 10 µM
U2OS_Bim cells [4]; read-out: EC50 in increasing cell survival rates following apoptosis induced by Bim overexpression
  EC50: 4 µM
U2OS_Bim cells [1]; cells washed free of compound 3 times before DOX, read-out: EC50 (wash assay)
  EC50: 3.9 µM
U2OS_Bim cells [1]; [6]
  EC50: 4.01 µM
U2OS_Bim cells [5]
  mitochondrial cytochrome c release: could prevent cytochrome c release
